From patent US10053455B2, “Diazaspiroalkaneone-substituted oxazole derivatives as spleen tyrosine kinase inhibitors” (AB SCIENCE, priority 2014, dated 2018)

Tests used:
[1] = test system: Murine bone marrow mast cells (BMMCs); assay: IgE-mediated mast cell degranulation assay (β-hexosaminidase release); assay type: cell-based, C57BL/6J mice; conditions: Mus musculus, BMMC
Experimental: In vitro mast cell degranulation assay monitored by released of β-hexosaminidase. Murine bone marrow mast cells (BMMCs) are obtained by flushing bone marrow cells from the femurs of C57BL/6J mice, then cultured for 3-4 weeks in RPMI containing mouse recombinant IL-3 (30 ng/ml). RBL-2H3 is a rat basophile cell line maintained in monolayer culture in EMEM supplemented with 20% FCS, 1 mM Glutamine and 1× antibiotics. Cells were sensitized overnight with 0.2 μg/ml anti-DNP-IgE (Sigma-Aldrich D8406). […] After incubation 90 min at 37° C., the reaction was quenched by addition of 100 μl of sodium carbonate buffer (0.1M Na2CO3/NaHCO3 pH 10.0). β-hexosaminidase activity was quantified by reading plate absorbance at 405 nm with reference at 620 nm using a PolarSTAR reader plate (BMG labech).
The activity of anti-SYK compounds was tested in an IgE-mediated mast cell degranulation assay. SYK has been identified to be critical for the initiation of mast cell mediator release following the aggregation of FcεRI.

human cardiomyocytes = assay: Intracellular ROS in human cardiomyocytes (CM-H2DCFDA); assay type: cell-based; conditions: 10 μM, 8 hours
Experimental: 2×10^3 human cardiomyocytes (Promocell C-12810) or 4×10^4 rat neonatal cardiac myocytes (R-CM-561 Lonza) were seeded per well of a 96-well plate (black wall for fluorimetry usage (655090 Greiner Bio one)) 24 hours before drug treatment. Treatment was initiated by addition of a drug solution for a 10 μM final concentration. Doxorubicin was used at 5 μM as positive control for the induction of ROS. After 8 hours treatment with drugs, cells were loaded with 10 μM of CM-H2DCFDA (C6827 Invitrogen) for 1 hour, followed by 2 washes in PBS. CM-H2DCFDA is a membrane permeable reagent that can be enzymatically converted to dichlorodihydrofluorescein (DCF) in the presence of ROS. Fluorescent DCF was detected using a fluorescence spectrophotometer (BMG Labtech) with excitation of 485 nm and emission of 560 nm. The results were expressed as a relative percent of DCF-fluorescence in control cells.
Monitoring drug-induced increase in the production of reactive oxygen species (ROS) in cardiomyocyte may be important to predict the cardiotoxic side effects of a drug (Table 11). The production of ROS in human and rat cardiomyocytes was studied following 8 hours drug treatment at concentration of 10 μM. The results were expressed as a percent relative to the production of ROS induced by the cardiotoxic chemotherapeutic agent doxorubicin (100%).

hERG = hERG (Homo sapiens (Human), UniProt Q12809); assay: Predictor hERG Fluorescence Polarization binding assay; conditions: 100% = E-4031
Sequence of hERG (Q12809 whole entry): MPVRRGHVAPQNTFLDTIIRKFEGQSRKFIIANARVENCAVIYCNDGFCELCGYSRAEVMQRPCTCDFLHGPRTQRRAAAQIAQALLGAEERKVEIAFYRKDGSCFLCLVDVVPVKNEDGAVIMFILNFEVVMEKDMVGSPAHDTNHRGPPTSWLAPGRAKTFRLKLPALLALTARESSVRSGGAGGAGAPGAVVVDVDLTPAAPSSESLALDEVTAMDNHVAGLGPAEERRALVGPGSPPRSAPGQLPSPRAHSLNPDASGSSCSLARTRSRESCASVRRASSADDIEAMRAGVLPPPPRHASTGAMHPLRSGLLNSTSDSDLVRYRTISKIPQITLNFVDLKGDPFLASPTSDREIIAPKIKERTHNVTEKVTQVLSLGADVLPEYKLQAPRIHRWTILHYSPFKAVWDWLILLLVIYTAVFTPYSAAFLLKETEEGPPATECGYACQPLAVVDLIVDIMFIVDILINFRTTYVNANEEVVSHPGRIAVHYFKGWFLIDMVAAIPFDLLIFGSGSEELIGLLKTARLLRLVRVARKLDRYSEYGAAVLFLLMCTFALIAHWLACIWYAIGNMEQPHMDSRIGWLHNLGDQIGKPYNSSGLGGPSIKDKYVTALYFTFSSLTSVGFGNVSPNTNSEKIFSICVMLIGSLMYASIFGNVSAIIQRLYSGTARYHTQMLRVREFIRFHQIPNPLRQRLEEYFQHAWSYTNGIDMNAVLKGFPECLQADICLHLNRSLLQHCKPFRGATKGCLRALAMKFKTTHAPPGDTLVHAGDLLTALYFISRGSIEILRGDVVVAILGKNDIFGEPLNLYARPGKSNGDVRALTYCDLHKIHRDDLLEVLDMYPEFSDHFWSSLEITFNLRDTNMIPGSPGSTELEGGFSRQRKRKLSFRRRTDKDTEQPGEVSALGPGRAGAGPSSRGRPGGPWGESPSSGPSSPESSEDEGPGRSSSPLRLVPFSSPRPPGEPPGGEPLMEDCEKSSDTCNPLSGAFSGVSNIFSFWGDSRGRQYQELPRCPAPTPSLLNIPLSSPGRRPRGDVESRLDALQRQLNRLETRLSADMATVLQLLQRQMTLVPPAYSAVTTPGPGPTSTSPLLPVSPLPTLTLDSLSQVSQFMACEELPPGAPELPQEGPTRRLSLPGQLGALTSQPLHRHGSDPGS
Experimental: The activity of the test compounds on the hERG potassium channel was evaluated using a binding assay provided by Invitrogen (Predictor hERG Fluorescence Polarization assay Kit PV5365). The test was performed at a single concentration of 3 μM of drug. […] The data are expressed as a percentage of hERG inhibition, 100% corresponding to the inhibition obtained with E-4031 and 0% with the solvent DMSO (negative control).

## Cc1ccnc(Nc2cccc(-c3cnc(N4CCNC(=O)C45CC5)o3)c2)n1 [Compound 001, 4-{5-[3-(4-Methyl-pyrimidin-2-ylamino)-phenyl]-oxazol-2-yl}-4,7-diaza-spiro[2.5]octan-8-one]
[1]; 0.01 μM, read-out: β-hexosaminidase activity (% control untreated cells)
  activity at 0.01 µM: 88 ± 14%
[1]; 0.1 μM, read-out: β-hexosaminidase activity (% control untreated cells)
  activity at 0.1 µM: 32 ± 9%
[1]; 1 μM, read-out: β-hexosaminidase activity (% control untreated cells)
  activity at 1 µM: 3 ± 5%
[1]; read-out: inhibiting mast cell degranulation IC50
  IC50: 50 nM
Human cardiomyocytes
  ROS production, activity relative to doxorubicine (100%), Hu-CM: 0%
hERG
  inhibition at 3 µM: 0%
